In brackets after ≈: the same amount, converted by molar mass.
Legend:
[1] = biological target: F508del-CFTR in CFBE41o– cells (Homo sapiens, UniProt Q99942); experiment: HS-YFP microfluorimetric assay of F508del-CFTR rescue (corrector activity); type: cell-based; settings: CFBE41o– cells co-expressing F508del-CFTR and HS-YFP, 24 h treatment, Figure 5
Protocol: As a primary screen, the new thiadiazole derivatives 1–46 (Table 1) were tested for their ability to rescue the F508del-CFTR trafficking defect in CFBE41o^– cells, stably co-expressing F508del-CFTR and the HS-YFP (Figure 5). This cell line has been extensively used by our group, in combination with the microfluorimetric assay based on the HS-YFP, to identify and characterize many CFTR correctors.[39],[47] This assay relies on the hypothesis that RNF5 inhibition results in increased mutant CFTR processing and activity. Therefore, it can easily identify putative RNF5 inhibitors, but not other types of RNF5-binding compounds that could have no effect or have a negative effect on CFTR function, such as RNF5 activators (see analog-1). Thus, we opted for this assay as our primary aim was the identification of RNF5 inhibitors as a possible therapeutic strategy in CF. Twenty-four hours after seeding on 96-well plates, CFBE41o^– cells stably expressing F508del-CFTR and the HS-YFP were treated with test compounds at the desired concentration, one compound per well. Cells treated with vehicle alone (DMSO) and with corrector VX-809 (1 μM), respectively, served as negative and positive controls. At the time of the assay, cells were washed with PBS containing (in […]) 137 NaCl, 2.7 KCl, 8.1 Na2HPO4, 1.5 KH2PO4, 1 CaCl2, and 0.5 MgCl2. Cells were then incubated for 25 min with […] of PBS plus forskolin (20 μM) and VX-770 (1 μM) to maximally stimulate F508del-CFTR. Cells were then transferred to a microplate reader (FluoStar Galaxy; BMG Labtech, Offenburg, Germany) for CFTR activity determination. The plate reader was equipped with high-quality excitation (HQ500/20X: 500 ± 10 nm) and emission (HQ535/30M: 535 ± 15 nm) filters for YFP (Chroma Technology). Each assay comprised a continuous 14 s fluorescence reading and 2 s before and 12 s after injection of […] of an iodide-containing solution (PBS with Cl^– replaced by I^–; final I^– concentration […]). Data were normalized to the initial background-subtracted fluorescence. To determine the I^– influx rate, the final 11 s of the data for each well was fitted with an exponential function to extrapolate initial slope (dF/dt). Reproducibility of results was confirmed by performing three independent experiments. CFBE41o^– cells co-expressing F508del-CFTR and the HS-YFP were reverse-transfected with 50 nM (final concentration) siRNAs (Stealth, Life Technologies) in the presence of lipofectamine 2000 as a transfection agent. The following day, the medium was changed, and the cells were incubated at 37 °C for additional 24 h treated with test compounds at the desired concentration, prior to processing the cells for the YFP-based functional assay.

[2] = system: ATG4B-mediated basal autophagy in F508del-CFTR-expressing CFBE41o– cells; experiment: Labeling of autophagic vacuoles with monodansylcadaverine (MDC); type: cell-based, human; settings: test compounds 5 μM 24 h; torin-1 20 nM and SAR-405 2 μM in the last 3 h
From the text: To further support our hypothesis that CFTR rescue following treatment with test compounds was indeed due to RNF5 inhibition, we considered additional biological processes known to be regulated by RNF5 ligase activity. To this aim, we focused our attention on ATG4B, a known regulator of basal autophagy, whose degradation is mediated by RNF5 activity.[54]In vivo ubiquitination experiments previously confirmed that inh-2 inhibits ATG4B degradation, thus increasing the basal level of autophagy.[40] […] We thus evaluated the effect of inh-2 analogues on induction of the autophagy pathway. To this aim, we monitored the formation of autophagic vacuoles in F508del-CFTR-expressing CFBE41o^– cells (Figure 8) by using the autolysosome marker monodansylcadaverine (MDC). MDC accumulates inside autophagosomes. After fusion of autophagosomes with lysosomes, MDC fluorescence increases due to the acidic environment.[55] Therefore, F508del-CFTR-expressing CFBE41o^– cells were treated for 24 h with test compounds (5 μM), VX-809 (1 μM), or DMSO alone (vehicle). In the last 3 h of incubation, we added torin-1 (20 nM), a known autophagy inducer, and SAR-405 (2 μM), a potent inhibitor of the autophagic pathway. The cells were then loaded with MDC and evaluated by high-content confocal imaging to detect signal spots (corresponding to autophagic vacuoles) in each cell.
CFBE41o^– cells stably expressing F508del-CFTR and the HS-YFP were plated (50,000 cells/well) on good-quality clear-bottom 96-well black microplates suitable for high-content imaging. After 24 h, cells were treated with test compounds or DMSO (as the negative control). […] After 24 h, cells were incubated with 50 μM MDC (Sigma-Aldrich) in PBS at 37 °C for 10 min.[62] After incubation, cells were washed three times with PBS and immediately analyzed. High-content imaging and data analysis were performed using the Opera Phenix (PerkinElmer) high-content screening system. Wells were imaged in confocal mode using a 40× water-immersion objective. The MDC signal was laser-excited at 405 nm, and the emission wavelengths were collected between 435 and 550 nm. Data analysis of MDC spot number was performed using the Harmony software (ver 4.5) of the Opera Phenix high-content system. Data are expressed as means ± SEM, n = 3 independent experiments. Statistical significance was tested by parametric ANOVA followed by the Dunnet multiple comparisons test (all groups against the control group).

[3] = Solubility and aggregation in PBS buffer by NMR (SPAM filter, 1H 1D and WaterLOGSY); type: physicochemical; settings: PBS pH 7.5, 1 μM ZnCl2, 1 mM DTT, 10% D2O, 1% DMSO-d6; for solubility: PBS buffer, aqueous buffer, kinetic from dmso stock, theoretical concentration 20 μM, read-out: solubility in PBS buffer by NMR, 20 μM; for aggregation in PBS buffer by NMR: WaterLOGSY
From the text: Under these circumstances, it was decided to explore the solubility of all the synthetized compounds, regardless of their biological activities, to find a suitable candidate for the validation of our working hypothesis, i.e., that the compounds exert their activities by directly binding to RNF5. For that, we first calculated the predicted octanol/water partition coefficient (log Po/w) and the predicted aqueous solubility (log S) of all the analogues by QikProp (Schrödinger Release 2022-1: QikProp, Schrödinger, LLC, New York, NY, 2021, Table S1). […] To shrink down the number of compounds for solubility experiments, just the ones that had −2.0 < log Po/w < 6 and −6.5 < log S <0.5 values were selected. Among them, the PBS solubility was determined for five representative analogues: (i) 12 and 29 bearing different substituents on the benzyl group A; (ii) 34 and 40 showing the replacement of rings B and C with pyridine-4-yl moieties; (iii) 42 in which the N-phenylbenzamidine portion was replaced with a pyridine-2-yl moiety (Table 1).
All the NMR experiments were recorded at 298 K using a 5 mm CryoProbe QCI ^1H/^19F–^13C/^15N–D quadruple resonance, a shielded z-gradient coil, and an automatic sample changer SampleJet NMR system with temperature control. The solubility of the compounds were evaluated by ^1H 1D experiments and aggregation by WaterLOGSY, testing the compounds in buffer PBS pH 7,5, 1 μM ZnCl2, 1 mM DTT, 10% D2O (for the lock signal), and 1% DMSO-d6 at the theoretical concentrations of 20, 50, and 100 μM in the presence of 200 μM 4-trifluoromethyl benzoic acid (internal reference). For all samples, a 1D ^1H NMR experiment was recorded, the water suppression was obtained using the standard NOESY (nuclear Overhauser effect spectroscopy) preset Bruker pulse sequence, with 64k data points, a spectral width (sw) of 30 ppm, 64 scans, acquisition time (aq) of 1.835 s, a relaxation delay (d1) of 4 s, and a mixing time of 10 ms. […] The data were multiplied by an exponential window function with 1 Hz line broadening prior to Fourier transformation. For NMR binding experiments, the compounds were tested at 50 μM in buffer PBS pH 7.5, 1 μM ZnCl2, 1 mM DTT, 10% D2O (for the lock signal), and 1% DMSO-d6 in the absence and in the presence of 3 μM RNF5. WaterLOGSY experiments were recorded with the same parameters used in solubility assays, but with a higher number of scans (512); STD experiments were recorded with 128 scans, with two on (0.7 and 1 ppm) and one off (−50 ppm) resonance spectra, a Gaussian-shaped train pulse of 50 ms each was employed, with a total saturation time of the protein envelope of 5, 3, 2, 1.5, 1, or 0.5 s. A T1ρ filter of 2 ms was employed in STD experiments to eliminate the background signals from the protein. The STD spectrum was obtained by subtraction of the on-resonance spectrum from the off-resonance spectrum. Subtraction was performed by phase cycling to minimize artifacts arising from magnet and temperature instabilities.

Chain of F508del-CFTR in CFBE41o– cells (Q99942 2-180): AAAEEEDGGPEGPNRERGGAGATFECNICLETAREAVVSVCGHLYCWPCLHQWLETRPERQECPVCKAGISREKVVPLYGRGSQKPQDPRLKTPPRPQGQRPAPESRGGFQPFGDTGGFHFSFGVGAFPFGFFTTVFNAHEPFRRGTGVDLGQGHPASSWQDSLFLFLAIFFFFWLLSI
Chain of F508del-CFTR in CFBE41o– cells (P13569 with tags, fused parts or gaps DEL508-508 partner): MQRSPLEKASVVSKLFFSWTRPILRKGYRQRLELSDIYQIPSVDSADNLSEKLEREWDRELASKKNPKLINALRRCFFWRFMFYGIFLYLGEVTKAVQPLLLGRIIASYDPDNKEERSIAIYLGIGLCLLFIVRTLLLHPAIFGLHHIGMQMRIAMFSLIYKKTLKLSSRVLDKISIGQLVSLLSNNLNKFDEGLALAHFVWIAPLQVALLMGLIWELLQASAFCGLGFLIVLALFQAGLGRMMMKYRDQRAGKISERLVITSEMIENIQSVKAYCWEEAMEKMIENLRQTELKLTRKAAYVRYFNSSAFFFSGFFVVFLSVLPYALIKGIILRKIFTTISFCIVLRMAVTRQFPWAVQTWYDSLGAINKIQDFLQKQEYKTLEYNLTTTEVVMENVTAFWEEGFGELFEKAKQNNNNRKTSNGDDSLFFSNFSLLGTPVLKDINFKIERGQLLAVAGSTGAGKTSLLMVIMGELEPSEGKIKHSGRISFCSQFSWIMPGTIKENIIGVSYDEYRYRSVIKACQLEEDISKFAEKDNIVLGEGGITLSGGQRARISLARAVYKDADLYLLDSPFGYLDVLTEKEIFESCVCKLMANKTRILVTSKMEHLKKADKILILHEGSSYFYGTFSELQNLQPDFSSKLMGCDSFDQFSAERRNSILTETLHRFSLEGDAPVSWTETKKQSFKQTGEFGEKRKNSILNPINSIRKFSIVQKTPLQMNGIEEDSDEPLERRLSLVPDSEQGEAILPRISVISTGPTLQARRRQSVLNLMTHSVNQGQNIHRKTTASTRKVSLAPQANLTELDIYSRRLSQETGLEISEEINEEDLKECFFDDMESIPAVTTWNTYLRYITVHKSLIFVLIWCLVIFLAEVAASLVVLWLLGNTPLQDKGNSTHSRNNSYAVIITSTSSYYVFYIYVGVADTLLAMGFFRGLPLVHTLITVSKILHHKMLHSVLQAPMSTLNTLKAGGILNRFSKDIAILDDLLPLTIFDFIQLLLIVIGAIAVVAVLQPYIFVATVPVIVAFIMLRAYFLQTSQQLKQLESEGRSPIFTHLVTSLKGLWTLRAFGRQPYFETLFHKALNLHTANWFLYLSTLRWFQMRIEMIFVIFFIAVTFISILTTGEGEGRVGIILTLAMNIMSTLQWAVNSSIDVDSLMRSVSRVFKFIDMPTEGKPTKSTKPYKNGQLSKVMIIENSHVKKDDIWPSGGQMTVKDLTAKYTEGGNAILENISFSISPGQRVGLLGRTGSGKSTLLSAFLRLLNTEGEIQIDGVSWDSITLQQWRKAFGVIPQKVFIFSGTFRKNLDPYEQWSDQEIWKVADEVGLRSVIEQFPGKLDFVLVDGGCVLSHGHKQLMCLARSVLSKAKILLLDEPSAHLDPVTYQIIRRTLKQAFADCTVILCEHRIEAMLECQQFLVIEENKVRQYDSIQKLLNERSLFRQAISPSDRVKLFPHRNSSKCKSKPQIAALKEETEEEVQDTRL

F508del-CFTR corrector activity compared with inh-2 (CFTR activity, primary screen) [1] | solubility [3] | aggregation in PBS buffer by NMR [3] | solubility at 50 µM ([3]; theoretical concentration 50 μM) | solubility at 100 µM ([3]; theoretical concentration 100 μM) | Compound | number of autophagic vacuoles (MDC signal spots) [2]
maintained the activity unaltered |  |  |  |  | Cc1ns/c(=N\C(=N\c2ccccc2)c2ccccc2)n1Cc1ccc(F)cc1 [Compound 9, (E)-N-((Z)-4-(4-Fluorobenzyl)-3-methyl-1,2,4-thiadiazol-5(4H)-ylidene)-N′-phenylbenzimidamide] | significantly decreased
maintained the activity unaltered |  |  |  |  | Cc1ns/c(=N\C(=N\c2ccccc2)c2ccccc2)n1Cc1ccc(Br)cc1 [Compound 11, (E)-N-((Z)-4-(4-Bromobenzyl)-3-methyl-1,2,4-thiadiazol-5(4H)-ylidene)-N′-phenylbenzimidamide] | significantly increased
decreased potency |  |  |  |  | Cc1ns/c(=N\C(=N\c2ccccc2)c2ccccc2)n1Cc1cccc(N)c1 [Compound 20, (E)-N-((Z)-4-(3-Aminobenzyl)-3-methyl-1,2,4-thiadiazol-5(4H)-ylidene)-N′-phenylbenzimidamide] | 

More lines, now with the values behind:

Compound | F508del-CFTR corrector activity compared with inh-2 (CFTR activity, primary screen) [1] | solubility [3] | aggregation in PBS buffer by NMR [3] | solubility at 50 µM ([3]; theoretical concentration 50 μM) | solubility at 100 µM ([3]; theoretical concentration 100 μM) | number of autophagic vacuoles (MDC signal spots) [2]
CCC(=O)N1CCN(c2ccc(-n3c(=O)ccc4cnc5ccc(-c6cnc7ccccc7c6)cc5c43)cc2C(F)(F)F)CC1 [torin-1, reference compound] |  |  |  |  |  | significantly increased
C[C@@H]1COCCN1c1cc(=O)n2c(n1)N(Cc1cncc(Cl)c1)[C@H](C(F)(F)F)CC2 [SAR-405, reference compound] |  |  |  |  |  | significantly decreased
Cc1ns/c(=N\C(=N\c2ccccc2)c2ccccc2)n1Cc1ccccc1N [Compound 29, (E)-N-((Z)-4-(2-Aminobenzyl)-3-methyl-1,2,4-thiadiazol-5(4H)-ylidene)-N′-phenylbenzimidamide] | comparable activity to the unsubstituted original hit inh-2 | < 5 µM | no | <5 µM | <5 µM | 
CNc1cccc(Cn2c(C)ns/c2=N\C(=N\c2ccccc2)c2ccccc2)c1 [Compound 21, (E)-N-((Z)-3-Methyl-4-(3-(methylamino)benzyl)-1,2,4-thiadiazol-5(4H)-ylidene)-N′-phenylbenzimidamide] | did not affect the activity |  |  |  |  | significantly increased
Cc1ns/c(=N\C(=N\C2CCCCC2)c2ccccc2)n1Cc1ccccc1 [Compound 39, (E)-N-((Z)-4-Benzyl-3-methyl-1,2,4-thiadiazol-5(4H)-ylidene)-N′-cyclohexylbenzimidamide] | inactive analogs |  |  |  |  | 
Cc1ns/c(=N\C(=N\c2ccccc2)c2ccncc2)n1Cc1ccccc1 [Compound 34, (E)-N-((Z)-4-Benzyl-3-methyl-1,2,4-thiadiazol-5(4H)-ylidene)-N′-phenylisonicotinimidamide] | maintaining the activity equal to inh-2 | 10 µM (≈ 3.85 µg/mL) | no |  |  | significantly decreased

Source: publication PMC10388311, “Innovative Strategy toward Mutant CFTR Rescue in Cystic Fibrosis: Design and Synthesis of Thiadiazole Inhibitors of the E3 Ligase RNF5” (Journal of Medicinal Chemistry, 2023)
